In US12624057B2, “Bisphosphonate quinolone conjugates and uses thereof” (BIOVINC, LLC, priority 2016, dated 2026):
In brackets after ≈: the same amount, converted by molar mass. Entries after “also recorded” stand apart in the source; their conditions may differ.

What was measured:
[1] = tested on: Aggregatibacter actinomycetemcomitans (Aa; wild-type rough strain D7S-1; serotype a); assay: Disc diffusion inhibition zone assay on Aa; assay type: cell-based
Excerpt: (§1) Since this BP-ciprofloxacin conjugate is novel and has not been tested in vivo, we performed an initial safety and efficacy study in an animal model of peri-implant osteomyelitis. This model is a unique in-house jawbone peri-implant osteomyelitis model that was developed specifically for translational value to study biofilm-mediated disease and host response in vivo (Freire, et al, Development of animal model for Aggregatibacter actinomycetemcomitans biofilm-mediated oral osteolytic infection: a preliminary study. J Periodontol 2011; 82:778-89). […] After biofilms are established on the implants in vitro, they are surgically transferred to the jawbone of each rat. Animals are anesthetized, the cheeks are retracted and a transmucosal osteotomy is performed so implants can be manually inserted into the osteotomy and secured. Two biofilm-inoculated implants are placed in each rat (n=12 rats and 24 implants) in the palatal bone bilaterally.
Next, inhibition zones were recorded using a ruler.
After biofilms were established on the implants in vitro, they were surgically transferred to the jawbone of each rat. For surgery, animals were anesthetized with 4% isoflurane inhalant initially followed by intraperitoneal injection of ketamine (80-90 mg/kg) plus xylazine (5-10 mg/kg). Then local anesthesia was given via infiltration injection of bupivicaine 0.25% at the surgical site. […]

[2] = tested on: Aggregatibacter actinomycetemcomitans (Aa; wild-type rough strain D7S-1; serotype a); assay: MIC assay on Aa; assay type: cell-based
Excerpt: as §1
(§2) Subsequently, the plate was incubated for 24 h/37° C. in a shaker to obtain optimal conditions for microbial growth and to prevent bacteria from forming biofilms. After incubation, the absorbance was measured once again. The following control samples were established: negative control sample one: sterile medium without microbes; negative control sample two: sterile medium without microbes implemented with DMSO (dimethyl sulfoxide, Sigma-Aldritch) to final concentration of 1% (v/v); positive control sample one: medium+microbes with no compound tested; positive control sample two: medium+microbes with no compound tested but implemented with DMSO to final concentration of 1% (v/v). […] To assess relative number of cells, the following calculations were performed. […] Next, the relative number of cells subjected to incubation with tested compounds were counted as follows: […].
After biofilms were established on the implants in vitro, they were surgically transferred to the jawbone of each rat. […]

[3] = tested on: S. aureus strain ATCC-6538 (MSSA) and clinical MRSA strain MR4-CIPS; assay: Time-kill assay (CLSI); assay type: cell-based, Staphylococcus aureus; details: for time-kill profile (in words): 1× and ½× MIC, 24 hrs
Experimental: Time-kill assay for BP-ciprofloxacin conjugate against S. aureus strain ATCC-6538 (MSSA) and clinical MRSA strain MR4-CIPS: This experiment was performed in the same manner as described previously under the subheading: “Evaluation of MIC of tested compounds against planktonic forms of clinical staphylococcal strains analyzed”, but absorbance assays (at 580 nm wavelength) were taken in hour: 0, 1, 2, 4, 8, 16, 24.

[4] = tested on: Aggregatibacter actinomycetemcomitans biofilms on titanium implants; assay: Rat jawbone peri-implant osteomyelitis model, second animal experiment; details: for reduction of mean CFU/gram of tissue versus control (in words): single high dose 10 mg/kg, 10 mg/kg
[5] = 24 h
Experimental: Next, solutions were left for 24 h/37° C./shaking. After incubation, absorbance was measured once again. To assess for degradation of conjugate, values of absorbance taken at 0 hr and 24 hrs were compared.

[6] = tested on: planktonic S. aureus clinical osteomyelitis strains (MSSA and MRSA); assay: MIC by microdilution against planktonic clinical S. aureus strains; assay type: cell-based, Staphylococcus aureus; details: for antimicrobial activity / MIC against planktonic S. aureus (in words): microdilution, 24 h
Experimental: as §2
as §2, with “Evaluation of the MIC of tested compounds against planktonic forms of clinical staphylococcal strains analyzed: To assess the impact of parent antibiotic and conjugates on microbial growth, 100 μl of microbial solutions of density 1×10^5 CFU/ml were placed into wells of 96-well test plates together with appropriate concentrations of tested compounds. […] Subsequently,” for “Subsequently,”, “plates were” for “the plate was”, “hrs/37°” for “h/37°”, “Sigma-Aldrich)” for “Sigma-Aldritch)”
The occurrence of opacification or lack of opacification of media was proof of pathogen growth or lack of growth, respectively. Additionally, bacterial solutions were cultured on the appropriate stable medium. Growth or lack of growth of bacterial colonies together with above-mentioned results from liquid cultures served as confirmation of results obtained spectrophotometrically.

In the case of `O=C(O)c1cn(C2CC2)c2cc(N3CCNCC3)c(F)cc2c1=O` [ciprofloxacin, reference compound], the “disc diffusion inhibition zone diameters” value [1] is reported as > 40 mm, the MIC90 ([2]; Example 1) is reported as 2 µg/mL (≈ 6.04 µM) and the MIC90 ([2]; Example 5) is reported as 2 µg/mL (≈ 6.04 µM). The MIC90 ([2]; Example 6) was 2000 µg/mL (≈ 6040 µM).
In the case of `O=C(O)c1cn(C2CC2)c2cc(N3CCN(C(=O)Oc4ccc(CC(P(=O)(O)O)P(=O)(O)O)cc4)CC3)c(F)cc2c1=O` [Compound 6, 1-cyclopropyl-7-(4-((4-(2,2-diphosphonoethyl)phenoxy)carbonyl)piperazin-1-yl)-6-fluoro-4-oxo-1,4-dihydroquinoline-3-carboxylic acid], the “time-kill profile (in words)” value [3] is reported as “sustained bactericidal activity over 24 hrs”, the “time-kill profile (in words)” value ([3]; listed as BP-ciprofloxacin) is reported as “strong bactericidal activity at 1 hr and up to 24 hrs” and the “time to bactericidal activity / evident prevention of growth” value ([3]; at half the MIC) is reported as 2 h. For the same molecule, the growth inhibition ([3]; at half the MIC, up to/after 24 hrs, versus controls) was 50%, the “time to bactericidal activity / evident prevention of growth” value ([3]; at half the MIC, listed as conjugate) was ≤ 1 h and the “time to bactericidal activity” value ([3]; at the established MIC) was ≤ 1 h. The “prevention of bacterial growth” value ([3]; at the established MIC, up to 24 hrs) was 100%, the “peri-implant inflammation at resection (in words)” value ([4]; majority of animals in the treatment groups) was “non-inflamed peri-implant tissues” and the “significance of CFU reduction versus control (in words)” value ([4]; multiple low dose 0.3 mg/kg 3×/week) was “not for the multiple low dose group”. For the same molecule, the “kill of Aa in peri-implant tissue” value ([4]; single dose 10 mg/kg) was “approximately 6 log units”, the “reduction of mean CFU/gram of tissue versus control (in words)” value [4] was “revealed significance for the single high dose of 6 treatment as compared to the control; also recorded: greatest CFU reduction and efficacy was observed at the single high dose; also recorded: greatest efficacy was observed at a single high dose” and the “reduction of mean CFU/gram of tissue versus control (in words)” value ([4]; listed as BCC) was “greatest efficacy and was highly statistically significant; also recorded: greatest efficacy was again observed at a single high dose”. The “stability in trypticase soy broth microbiological media” value [5] was “no degradation is observed after 24 hrs”, the “MIC compared with mean bactericidal concentration (MBC)” value ([6]; AST data) was “equivalent to their mean bactericidal concentrations” and the “antimicrobial activity / MIC against planktonic S. aureus (in words)” value (“antimicrobial activity / MIC” below) [6] was “effective bactericidal activity”. The “antimicrobial activity / MIC” value ([6]; listed as BCC) was “retains significant bactericidal activity” and the “antimicrobial activity / MIC” value ([6]; listed as BP-ciprofloxacin) was “slightly greater concentrations of conjugate required to reach MIC than ciprofloxacin alone”.
